The source of these data is patent US3974157A, “1-(Amino-alkyl)-2-aryl-cyclohexane alcohols and esters” (Pennwalt Corporation, priority 1975, dated 1976).

Type in all cases: in vivo
Assay [1] can be described thus: phenylbenzoquinone (PBQ) writhing method (analgesia in mice, Sigmund et al). Particulars: mice, phenylbenzoquinone writhing; for ED50: Mus musculus. The protocol:
(§1) Analgesia was assessed in mice utilizing the hot plate method of Eddy and Leimbach, Journal Pharmacology Expt. Therap., 107, 385, 1953, and/or the phenylbenzoquinone writhing method described by Sigmund et al, Proc. Soc. Exptl. Biol. Med., 95, 729, 1957. The hot plate method is based upon the delay in reaction time, following administration of an active analgesic when animals are placed on a heated […] plate maintained at constant temperature. Thus, the numbers of mice showing elevation of response times over control values after administration of various doses of an unknown compound are used to determine the median effective dose (ED50), which is that dose affecting 50% of the animals. The writhing method is based upon inhibition by an analgesic of the response which occurs when the chemical agent phenylbenzoquinone is injected intraperitoneally. This response is characterized by a twisting or stretching of the body and is referred to as writhing. Following administration of an analgesic or unknown compound into mice, the numbers of animals not responding to the phenylbenzoquinone challenge by writhing are determined.

Assay [2] is described as follows: hot plate method (analgesia in mice, Eddy and Leimbach). The conditions noted are these: Mus musculus, mice. How it is done:
as §1

For assay [3], the system named is arrhythmia produced in dogs or cats by ouabain. The experiment in a line: anti-arrhythmic activity: preventing or reversing the arrhythmia produced by ouabain. The conditions noted are these: for Arrhythmia Reversal Time: ouabain arrhythmia. The protocol:
Anti-arrhythmic activity was determined by measuring the effect of the test compound in preventing or reversing the arrhythmia produced in dogs or cats by ouabain. In the test method, the animal was pretreated with 10 mg/kg (i.v.) of the test compound. The animal was then given 15 micrograms/kg of ouabain (i.v.) followed by doses of 10 micrograms/kg of ouabain at 15-minute intervals (the last dose of ouabain could be less than 10 micrograms/kg) until an arrhythmia was produced which lasted for 10 minutes. The animal was then given 5 mg/kg (i.v.) of test compound. If the arrhythmia was not reversed after 3 minutes, 1 mg/kg of xylocaine was given (i.v.) to reverse the arrhythmia. If the arrhythmia was reversed within 3 minutes by the test compound, the period of time during which the test compound effected reversal was measured (Arrythmia Reversal Time).

[4] abbreviates: po, oral route, read-out: Analgesic Tests ED50 PBQ P.O.
Setting [5] is: sc, subcutaneous route, read-out: Analgesic Tests ED50 PBQ S.C.
Setting [6] is: ip, intraperitoneal route, read-out: Analgesic Tests ED50 Hot Plate I.P.
Setting [7] is: oral route, read-out: Analgesic Tests ED50 Hot Plate P.O.
Setting [8] is: dogs or cats, amount compound 5 mg/kg.
[9] abbreviates: ouabain given i.v. until an arrhythmia lasting 10 minutes, after 10 mg/kg i.v. pretreatment with test compound.

Structures are written as SMILES. Counter-ions that a name gives are not always drawn.

As for `CC(=O)OC1(C(C)N(C)C)CCCCC1c1ccccc1` (stereo not drawn) [XXVIII, 1-(1-Dimethylaminoethyl)-2-phenylcyclohexyl acetate cyclohexylsulfamate], the ED50 was above 30 mg/kg in assay [1] (setting [4]) and above 10 mg/kg in assay [1] (setting [5]).

Take `CCOC(=O)C1(c2ccccc2)CCN(C)CC1` [Meperidine, reference compound]: the ED50 in assay [2] (setting [6]) worked out at 5.8 mg/kg; in assay [2] (setting [7]) it was 81 mg/kg; in assay [1] (setting [4]), 18 mg/kg; in assay [1] (setting [5]) it was 1.7 mg/kg.

As for `CC(=O)OC1(C(C)CN2CCCC2)CCCCC1c1ccccc1.O=S(=O)(O)O` (stereo not drawn) [Example XXII, 1-(1-Methyl-2-pyrrolidinoethyl)-2-phenylcyclohexyl acetate sulfate], the ED50 in assay [1] (setting [4]) is above 30 mg/kg; in assay [1] (setting [5]), around 10 mg/kg.

For `CC(=O)OC1(CCN(C)C)CCCCC1c1ccccc1` (stereo not drawn) [Example XV, 1-(2-Dimethylaminoethyl)-2-phenylcyclohexyl acetate cyclohexylsulfamate], the figures for the ED50 in assay [1] (setting [4]) and in assay [1] (setting [5]) were above 30 mg/kg and above 10 mg/kg, respectively.

Regarding `COc1ccc(C2CCCCC2(O)C(C)CN(C)C)cc1.Cl` (stereo not drawn) [Example XVII, 1-(2-Dimethylamino-1-methylethyl)-2-(p-methoxyphenyl)-cyclohexanol hydrochloride], the results for the ED50 in assay [1] (setting [4]) and in assay [1] (setting [5]) were above 100 mg/kg and above 30 mg/kg, respectively. Also, the “Arrhythmia Reversal Time” value in assay [3] (setting [8]) is 30 min. For the same molecule, the “Amount Ouabain” value in assay [3] (setting [9]) was 80 µg/kg.

As for `CNC(C)C1(O)CCCCC1c1ccccc1.Cl` (stereo not drawn) [XXIV, 1-(1-Methylaminoethyl)-2-phenylcyclohexanol hydrochloride], the ED50 is above 100 mg/kg in assay [1] (setting [4]) and above 30 mg/kg in assay [1] (setting [5]). In addition, in assay [3] (dogs or cats, 10 mg/kg pretreatment, then ouabain), the “prevention of arrhythmia by pretreatment” value is recorded as “prevented arrhythmia”. Besides, in assay [3] (setting [9]), the “Amount Ouabain” value was 140 µg/kg.

Consider `CCC(=O)OC1(C(C)CN(C)C)CCCCC1c1ccccc1` (single isomer, unassigned) [Example I (a), 1-(2-Dimethylamino-1-methylethyl)-2-phenylcyclohexyl propionate maleate (Major Isomer)], for which the results for the ED50 in assay [2] (setting [6]), in assay [2] (setting [7]) and in assay [1] (setting [4]) were above 40 mg/kg, above 100 mg/kg and 100 mg/kg, respectively.

On to `CC(=O)OC1(C(C)CN2CCCCC2)CCCCC1c1ccccc1.Cl` (stereo not drawn) [XII, 1-(1-Methyl-2-piperidinoethyl)-2-phenylcyclohexyl acetate hydrochloride], for which the ED50 was around 60 mg/kg in assay [1] (setting [4]) and around 30 mg/kg in assay [1] (setting [5]).

Regarding `COc1ccc(C2CCCCC2(OC(C)=O)C(C)CN(C)C)cc1` (stereo not drawn) [Example XXV, 1-(2-Dimethylamino-1-methylethyl)-2-(p-methoxyphenyl)-cyclohexylacetate hydrochloride], the values for the 50% effective dose (ED50) in assay [1] (setting [4]) and in assay [1] (setting [5]) were above 100 mg/kg and above 30 mg/kg, respectively.

As for `CNCC(C)C1(O)CCCCC1c1ccccc1.Cl` (stereo not drawn) [Example XXVI, 1-(2-Methylamino-1-methylethyl)-2-phenylcyclohexanol hydrochloride], the ED50 in assay [1] (setting [4]) is above 30 mg/kg; in assay [1] (setting [5]), above 10 mg/kg.

Regarding `COc1ccc(C2CCCCC2(O)C(C)CN(C)C)cc1OC` (stereo not drawn) [XXXII, 2-(3,4-Dimethoxyphenyl)-1-(2-dimethylamino-1-methylethyl)cyclohexanol p-toluenesulfonate], the ED50 was above 100 mg/kg in assay [1] (setting [4]) and around 30 mg/kg in assay [1] (setting [5]).

As to `C=CCN(C)CC(C)C1(OC(C)=O)CCCCC1c1ccccc1` (stereo not drawn) [XIII, 1-(2-Allylmethylamino-1-methylethyl)-2-phenylcyclohexyl acetate], the ED50 was around 100 mg/kg in assay [1] (setting [4]) and around 30 mg/kg in assay [1] (setting [5]).

`CCN(CC)CC(=O)Nc1c(C)cccc1C` [Lidocaine, reference compound]: the “Amount Ouabain” value in assay [3] (control (Lidocaine) line) lay within 60 to 130 µg/kg. In assay [3] (dogs or cats, control, amount compound 1-2 mg/kg), the “Arrhythmia Reversal Time” value is 1 to 3 min.

Regarding `CN(C)CCC1(O)CCCCC1c1ccccc1` (stereo not drawn) [Example XIV, 1-(2-Dimethylaminoethyl)-2-phenylcyclohexanol], the ED50 is above 100 mg/kg in assay [1] (setting [4]) and around 30 mg/kg in assay [1] (setting [5]).

Regarding `CC(=O)OC1(C(C)CN2CCOCC2)CCCCC1c1ccccc1.Cl` (stereo not drawn) [XIX, 1-(1-Methyl-2-morpholinoethyl)2-phenylcyclohexyl acetate hydrochloride], the results for the median effective dose (ED50) in assay [1] (setting [4]) and in assay [1] (setting [5]) were 40 mg/kg and 56.2 mg/kg, respectively.

Regarding `CC(=O)OC1(C(C)CN(C)C)CCCCC1c1ccccc1` (single isomer, unassigned; (-)) [Example IX, (-)-1-(2-Dimethylamino-1-methylethyl)-2-phenylcyclohexyl acetate], in assay [1] (oral route), the “Analgesic Tests ED50 PBQ P.O.” value was 16 mg/kg. For the same molecule, the “Analgesic Tests ED50 PBQ S.C.” value in assay [1] (subcutaneous route) is recorded as 2.15 mg/kg.

Take `CC(N)C1(O)CCCCC1c1ccccc1.Cl` (stereo not drawn) [Example XXIII, 1-(1-Aminoethyl)-2-phenylcyclohexanol hydrochloride]: the ED50 in assay [1] (setting [4]) was above 100 mg/kg; in assay [1] (setting [5]), above 30 mg/kg. For the same molecule, in assay [3] (setting [8]), the “Arrhythmia Reversal Time” value came to 5 min. Further, the “Amount Ouabain” value in assay [3] (setting [9]) is 95 µg/kg.

In the case of `C=CCN(CC=C)CC(C)C1(OC(C)=O)CCCCC1c1ccccc1` (stereo not drawn) [Example XVI, 1-(2-Diallylamino-1-methylethyl)-2-phenylcyclohexyl acetate], the ED50 in assay [1] (setting [4]) was above 30 mg/kg; in assay [1] (setting [5]), above 3 mg/kg.

For `CC(CN(C)C)C1(O)CCCCC1c1ccc(O)cc1` (stereo not drawn) [Example XXX, 1-(2-Dimethylamino-1-methylethyl)-2-(p-hydroxyphenyl)-cyclohexanol], the ED50 in assay [1] (setting [4]) was above 100 mg/kg; in assay [1] (setting [5]) it was above 30 mg/kg.

On to `CC(=O)OC1(C(C)CN2CCN(c3ccccc3)CC2)CCCCC1c1ccccc1.Cl` (stereo not drawn) [Example XXI, 1-(1-Methyl-2-[4-phenyl-1-piperazinyl]ethyl)-2-phenylcyclohexyl acetate hydrochloride], for which the 50% effective dose (ED50) in assay [1] (setting [4]) is 5.9 mg/kg; in assay [1] (setting [5]), above 100 mg/kg.

For `CC(=O)OC1(C(C)CN(C)C)CCCCC1c1ccccc1` (single isomer, unassigned; (+)) [Example X, (+)-1-(2-Dimethylamino-1-methylethyl)-2-phenylcyclohexyl acetate], the “Analgesic Tests ED50 PBQ P.O.” value in assay [1] (oral route) is reported as above 100 mg/kg. The “Analgesic Tests ED50 PBQ S.C.” value in assay [1] (subcutaneous route) is listed as 16.5 mg/kg.

Regarding `CC(=O)OC1(C(C)CN(C)C)CCCCC1c1ccc(O)cc1.Cl` (stereo not drawn) [XXXI, 1-(2-Dimethylamino-1-methylethyl)-2-(p-hydroxyphenyl)cyclohexyl acetate hydrochloride], the ED50 in assay [1] (setting [4]) and in assay [1] (setting [5]) was above 100 mg/kg in each case.

Regarding `COc1ccc(C2CCCCC2(OC(C)=O)C(C)CN(C)C)cc1OC.Cl` (stereo not drawn) [XXXIII, 2-(3,4-Dimethoxyphenyl)-1-(2-dimethylamino-1-methylethyl)cyclohexyl acetate hydrochloride], the ED50 in assay [1] (setting [4]) was above 100 mg/kg; in assay [1] (setting [5]), above 30 mg/kg. Further, the “Arrhythmia Reversal Time” value in assay [3] (setting [8]) is 30 min. The “Amount Ouabain” value in assay [3] (setting [9]) was 70 µg/kg.

In the case of `CC(N(C)C)C1(O)CCCCC1c1ccccc1.Cl` (stereo not drawn) [Example XXVII, 1-(1-Dimethylaminoethyl)-2-phenylcyclohexanol hydrochloride], the ED50 in assay [1] (setting [4]) and in assay [1] (setting [5]) was above 100 mg/kg each time.

With `CC(CN1CCCC1)C1(O)CCCCC1c1ccccc1` (stereo not drawn) [Example III, 1-(1-Methyl-2-pyrrolidinoethyl)-2-phenylcyclohexanol], the ED50 in assay [1] (setting [4]) was above 100 mg/kg; in assay [1] (setting [5]) it was around 30 mg/kg. For the same molecule, the “Arrhythmia Reversal Time” value in assay [3] (setting [8]) is 5 min. In assay [3] (setting [9]), the “Amount Ouabain” value was determined as 100 µg/kg.
